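Protocol summary: plate cells (96-well), add compound at 5 concentrations, incubate 48 h, interpolate endpoints linearly. At the GI50, growth is halved. TGI: concentration producing complete growth inhibition.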
Columns and labels:
Assay in all cases: NCI tumour cell line growth inhibition, 48 h
A498 renal = tested on: A498 renal
CAKI-1 renal = tested on: CAKI-1 renal
IGROV1 ovarian = tested on: IGROV1 ovarian
MOLT-4 leukemia = tested on: MOLT-4 leukemia
RXF 393 renal = tested on: RXF 393 renal
SN12C renal = tested on: SN12C renal
SNB-19 CNS = tested on: SNB-19 CNS
SNB-75 CNS = tested on: SNB-75 CNS
TK-10 renal = tested on: TK-10 renal
BT-549 breast = tested on: BT-549 breast

Row | SMILES | TGI (A498 renal) | TGI (CAKI-1 renal) | TGI (IGROV1 ovarian) | TGI (MOLT-4 leukemia) | TGI (RXF 393 renal) | TGI (SN12C renal) | TGI (SNB-19 CNS) | TGI (SNB-75 CNS) | TGI (TK-10 renal) | GI50 (A498 renal) | GI50 (CAKI-1 renal) | GI50 (MOLT-4 leukemia) | GI50 (SNB-75 CNS) | GI50 (TK-10 renal) | TGI (BT-549 breast)
1 | O=P(O)(O)C(CSc1ccccc1)P(=O)(O)O | > 100 µM | > 100 µM | > 100 µM | > 100 µM | > 100 µM | > 100 µM | > 100 µM | > 100 µM |  |  |  |  |  |  | 
2 | CC(=O)[O-].CC(=O)[O-].O=C(N/N=C/c1cc(Cl)cc(Cl)c1[OH2+])c1ccncc1.[Co+2] | > 100 µM |  | > 100 µM | > 100 µM | > 100 µM | > 100 µM | > 100 µM | > 100 µM | > 100 µM |  |  |  |  |  | 
3 | CC(=O)c1ccc(Oc2ccc(/C(C)=N\N=C(N)N)cc2)cc1 | 7.53 µM |  | 18.2 µM | 12.2 µM |  | 13.4 µM | 22.5 µM | 5.15 µM | 12.8 µM |  |  |  |  |  | 
4 | CC1(O)CC2C(CC1SCCO)C2(C)C (stereo not drawn) | > 100 µM |  | > 100 µM | > 100 µM |  | > 100 µM |  | > 100 µM | > 100 µM |  |  |  |  |  | 
5 | CC(=O)O[C@H]1CC[C@]2(C)[C@H]3CC[C@@H]4[C@H]5[C@H](C(C)C)CC[C@]5(C(=O)OCC(CO)(CO)N=C(N)N)CC[C@@]4(C)[C@]3(C)CC[C@H]2C1(C)C | 3.67 µM | 2.98 µM |  | 4.83 µM |  |  |  | 3.23 µM | 3.12 µM | 1.86 µM | 1.46 µM | 2.1 µM | 1.57 µM | 1.67 µM | 
6 | COC(=O)C1=Nc2c(C)nn(-c3ccccc3)c2N=C(c2ccc(C)cc2)C1 |  | > 10 µM | > 10 µM | > 10 µM |  | > 10 µM | > 10 µM | > 10 µM | > 10 µM |  |  |  |  |  | > 10 µM
7 | O=C1CCCc2c1c1c(n2Cc2ccccc2)-c2ccccc2C1=O |  | 46.2 µM | 72.1 µM |  | > 100 µM | 45.5 µM | 41.1 µM | > 100 µM | 31.4 µM |  |  |  |  |  | 55.7 µM
8 | O=C1C2C=CC1C1C(=O)OC(=O)C21 (stereo not drawn) | > 100 µM | > 100 µM | > 100 µM | > 100 µM |  | > 100 µM | > 100 µM | > 100 µM | > 100 µM |  |  |  |  |  | > 100 µM
9 | C=C1c2c(cc3c(c2O)c(=O)c2ccccc2n3C)OC1(C)C | > 100 µM | > 100 µM | > 100 µM | > 100 µM |  | > 100 µM | > 100 µM | 42 µM | > 100 µM |  |  |  |  |  | 
10 | O=C1c2ccccc2-c2nc(-c3cccnc3)cc3c2c1nc1ccccc13 |  | > 100 µM | > 100 µM | > 100 µM |  | > 100 µM | > 100 µM | > 100 µM | > 100 µM |  |  |  |  |  | > 100 µM
11 | O=C(NO)c1coc2ccccc2c1=O | > 100 µM | 68.5 µM | > 100 µM | > 100 µM | > 100 µM | > 100 µM | > 100 µM | > 100 µM | > 100 µM |  |  |  |  |  | 
12 | CN1C(c2ccccc2)=CC(=O)C(O)=C(c2ccccc2)S1(=O)=O |  | > 100 µM | > 100 µM | > 100 µM | > 100 µM | > 100 µM | > 100 µM | > 100 µM | > 100 µM |  |  |  |  |  | > 100 µM
13 | N#CCC(=O)Nn1c(CC#N)nnc1Cc1ccccc1 |  | > 100 µM | > 100 µM | > 100 µM | > 100 µM |  | > 100 µM | > 100 µM | > 100 µM |  |  |  |  |  | > 100 µM
14 | C=C(C=O)c1c2c(nc3ccccc13)C(=O)c1ccccc1C2=O | 3.76 µM | 0.795 µM | 2.19 µM | 0.997 µM |  | 41.3 µM | 2.8 µM | 2.18 µM | 2.32 µM |  |  |  |  |  | 3.57 µM
15 | CC[N+]1(C)CCC(O)(c2ccc(Cl)cc2)C(C(=O)c2ccc(Cl)cc2)C1 (stereo not drawn) | 48.3 µM |  | 47.9 µM | 41.2 µM | 27.4 µM | 37.5 µM | 31.8 µM |  | 34.1 µM |  |  |  |  |  | 
16 | CC(C)(C)[Si](C)(C)OCCCC#CCO | > 100 µM | > 100 µM | > 100 µM | > 100 µM | > 100 µM | > 100 µM | > 100 µM | > 100 µM | > 100 µM |  |  |  |  |  | 
17 | CCCNC(=S)N/N=C/c1cccc(C)n1 | 87.3 µM |  | > 100 µM | 72.3 µM | > 100 µM | > 100 µM |  |  | > 100 µM |  |  |  |  |  | 
18 | Cc1c(-c2cc3n(n2)C(c2cccs2)C(C#N)=C(c2ccccc2)N3)c(=O)n(-c2ccccc2)n1C (stereo not drawn) | > 100 µM | 84.2 µM | > 100 µM | > 100 µM | > 100 µM | > 100 µM | > 100 µM | > 100 µM |  |  |  |  |  |  | 
19 | COc1ccc(C2SCC(=O)N2c2ccc(-c3ccc(-n4c(-c5ccccc5)nc5ccccc5c4=O)cc3)cc2)cc1 (stereo not drawn) | > 100 µM | > 100 µM | > 100 µM | > 100 µM |  | > 100 µM | > 100 µM |  | > 100 µM |  |  |  |  |  | > 100 µM

— PubChem BioAssay (NCI)
